Marks after values point to notes of the source that are not given here.
How the values were obtained:
[1] = Chemical stability of alcaftadine solution in non-sterilized or gamma irradiated LDPE bottles and glass vials (HPLC); type: physicochemical
Description: The existence of the N-oxide structures as the primary oxidative degradation peak was confirmed as having the same HPLC relative retention time as a synthetically produced N-oxide structures and also confirmed using mass spectroscopy.
To investigate the effects of the gamma irradiation process used to sterilize the LDPE bottles, the chemical stability of alcaftadine was studied using different lots of bottles, either gamma irradiated or non-sterilized.
The following materials were used in this study.
2.5 mg/ml alfactadine solution
Non-sterilized 5 ml LDPE bottles (DUPONT 20-6064) from Bunder Glas GmbH (Germany)
Non-sterilized 5 ml LDPE bottles (DUPONT 20-6064) from Rexam (France)
Sterilized (gamma irradiated at 25 kGy) LDPE bottles (DUPONT 20-6064) from Bunder Glas GmbH
Scintillation vials—20 ml clear glass with Teflon coated cap Millex GV syringe filter unit
Chemical stability results for alcaftadine solution stored in either non-sterilized bottles (Rexam or Bunder Glas) or gamma-irradiated bottles (Bunder Glas) are summarized in Table 2. All samples were assayed by HPLC after 6 and 14 days of storage at 50° C. Light exposure was not controlled during storage. The solution was stored in either Rexam bottles (without sterilization), Bunder Glas bottles (sterilized with y Irradiation or without sterilization) and in glass vials.

[2] = test system: RBL-CCR1 (Rat Basophil Leukemia-Chemokine Receptor-1) cell line; experiment: Mast cell degranulation / cell stabilization in RBL-CCR1 cells; type: cell-based
Experimental: The cell stabilization potential of alcaftadine was evaluated using the RBL-CCR1 (Rat Basophil Leukemia-Chemokine Receptor-1) cell line as a way of investigating its ability to effect mast cell stabilization. The use of basophil cell lines to assess anti-allergic drugs for cell stabilization potential is well established. Physiologically, basophils are similar to mast cells, containing pre-formed inflammatory mediators that are released through a similar degranulation process involving IgE cross-linking. Because these cell lines are readily available, they present efficiencies over conducting stabilization assays in mast cell lines.
Cultured RBL-CCR1 cells were sensitized to anti-DNP IgE. Following sensitization, cells were treated with various concentrations of alcaftadine or its major active metabolite (0.083%, 0.0083% and 0.00083%) or ophthalmic vehicle (placebo), and stimulated with DNP and/or MIP-1a (Macrophage Inflammatory Protein-1 alpha, a degranulation enhancer) to induce degranulation. A 10× and 100× placebo control solution (ophthalmic vehicle solution) in D-DEM (Dulbecco's modified Eagle's medium) was also employed.
However, co-stimulation induced a robust degranulation response.

[3] = Bunder Glas bottles, Y Irradiation (gamma, 25 kGy), 50° C., 6 days
[4] = Bunder Glas bottles, Y Irradiation (gamma, 25 kGy), 50° C., 14 days
[5] = Bunder Glas bottles, no sterilization, 50° C., 6 days
[6] = Bunder Glas bottles, no sterilization, 50° C., 14 days
[7] = Rexam bottles, no sterilization, 50° C., 6 days
[8] = Rexam bottles, no sterilization, 50° C., 14 days

Alcaftadine [1, 3]: 2.41 mg/mL
Oxide [1, 3]: 0.199%
Alcaftadine [1, 4]: 2.39 mg/mL
Oxide [1, 4]: 0.202%
Alcaftadine [1, 5]: 2.48 mg/mL
Oxide [1, 5]: 0.018%
Alcaftadine [1, 6]: 2.48 mg/mL
Oxide [1, 6]: 0.042%
Oxide ([1]; Glass Vials, 50° C., 6 days): 0.024%
Alcaftadine ([1]; Glass Vials, 50° C., 6 days, sample showed significant evaporation): 2.57* mg/mL
Alcaftadine ([1]; Initial Solution): 2.47 mg/mL
Oxide ([1]; Initial Solution): 0.02%
Alcaftadine [1, 7]: 2.46 mg/mL
Oxide [1, 7]: 0.015%
Alcaftadine [1, 8]: 2.48 mg/mL
Oxide [1, 8]: 0.033%
susceptibility to oxidation ([1]; primary degradation product N-oxide): susceptible to oxidation
Compound: CN1CCC(=C2c3ccccc3CCn3c(C=O)cnc32)CC1 [Alcaftadine, 6,11-dihydro-11-(1-methyl-4-piperidinylidene)-5H-imidazo[2,1-b][3]benzazepine-3-carboxaldehyde]
N-oxide formation in gamma irradiated Bunder Glas bottles compared with glass vials and non-sterilized Rexam and Bunder Glas bottles ([1]; 50° C.): significantly increased levels of N-oxide formation
overall membrane stabilization [2]: effective membrane stabilizing agents
stabilization effect added to that of placebo ([2]; 10× dose level): enhanced the stabilization effect
degranulation at the highest concentration ([2]; […], DNP-HSA alone, MIP-1a alone, and co-stimulation): unanticipated and significant degranulation
cell stabilization compared to co-stimulation control and negative controls (placebo 10× and placebo 100×) ([2]; co-stimulation assay, concentrations of […] and […], p<0.0001 for both concentrations): superior at cell stabilization

Reference: US10617695B2, “Ophthalmic compositions containing alcaftadine” (Vistakon Pharmaceuticals, LLC, priority 2006, dated 2020)
